According to patent US20070031511A1, “Method of treatment” (priority 2003, published 2007):
Where two headings read alike, the source gives them in different places. Where a SMILES comes first, the peptide text is derived from it. Where no end group is shown, it is not given here. [ ]: non-standard residue; d: D form. pGlu = O=C1CC[C@@H](C(=O)O)N1

Experiments:
[1] = pH 4.0; Ref. 8 given in table; read-out: Kd (μM), apparent dissociation constant for ferric ions; cited from earlier work
IMGE-5 cells = assay: IMGE-5 cell proliferation, MTT assay; format: cell-based, mice
Experimental: The IMGE-5 cell line was established from the gastric mucosa of mice transgenic for a temperature-sensitive mutant of the SV40 large T antigen (Hollande et al, 2001). IMGE-5 cells were generally grown at 33° C. in DMEM containing 1 unit/ml γ-interferon, 10% FBS, 100 U/ml penicillin, and 100 μg/ml streptomycin (permissive conditions). For all experiments, cells were transferred to 39° C. in the same medium without […] (non-permissive conditions), where they display differentiated characteristics such as expression of functional adherens and tight junctions. All experiments have been performed on cells between passages 20 and 35.
A colorimetric assay was used to measure cell proliferation. Briefly, IMGE-5 cells were seeded in a 96-well plate at a density of 10^4 cells/well in DMEM containing 10% FBS and antibiotics. The following day, cells were synchronized in Go by incubation for 24 h in the same medium lacking FBS. The medium was replaced the next day with fresh medium containing 1% FBS and antibiotics and the peptides under investigation, and incubation was continued for 72 h. 15 μl of 5 mg/ml 3-(4,5-dimethylthiazol-2-yl)-2-5-diphenyltetrazolium bromide (MTT, Sigma, St Louis Mo.) was added per well, and the plate was incubated at 37° C. for 4 h before the medium was discarded. 200 μl 40 mM HCl in isopropanol was added to lyse the cells, and the absorbance at 570 nm was read on a BioRad Model 550 Microplate reader (BioRad, Hercules, Calif.).

hepatoma cell lines = settings: Kicic et al, 2001; cited from earlier work
CCK-2 receptor [2] = target: T1, CCK-2 receptor (Homo sapiens, UniProt P32239); assay: [125I]-BH-CCK8 displacement, CCK-2 receptor on Jurkat cells; format: binding; settings: for Ratio IC50 mutant/IC50 Gamide: T-lymphoblastoid Jurkat cells; for % Maximum Binding (Jurkat): binding in the absence of competitor, fitted, mean ± S.E.
T1 sequence (P32239 1-447): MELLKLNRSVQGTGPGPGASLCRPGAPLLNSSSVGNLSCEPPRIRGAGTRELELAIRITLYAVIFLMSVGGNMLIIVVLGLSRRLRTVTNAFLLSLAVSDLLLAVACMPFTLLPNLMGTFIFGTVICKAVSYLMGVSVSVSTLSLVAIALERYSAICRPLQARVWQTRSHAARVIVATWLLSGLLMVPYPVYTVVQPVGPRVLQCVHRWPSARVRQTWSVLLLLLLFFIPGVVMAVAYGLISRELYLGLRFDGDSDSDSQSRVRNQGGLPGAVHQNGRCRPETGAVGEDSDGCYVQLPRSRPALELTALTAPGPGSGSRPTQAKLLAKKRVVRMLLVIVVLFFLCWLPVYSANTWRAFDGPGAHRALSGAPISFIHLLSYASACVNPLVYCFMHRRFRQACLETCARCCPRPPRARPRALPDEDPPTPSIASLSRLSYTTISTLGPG
Experimental: (§1) Non-specific binding was evaluated with […] of unlabelled CCK8. Incubation was stopped by adding 2 ml of ice-cold PBS containing 2% bovine serum albumin. After centrifugation, supernatants were removed and the radioactivity bound to the cell membranes was measured in a γ-counter (LKB, Wallac, Finland).

CCK-2 receptor [3] = target: T1, CCK-2 receptor; assay: Gamide-stimulated inositol phosphate production in COS-7 cells transfected with the CCK-2 receptor; format: cell-based; parameters: COS-7 cells transiently transfected with CCK-2 receptor cDNA; expressed in transfected cells; host or cells: COS-7; settings: for Stimulation of inositol phosphate production: 10 nM peptide
Experimental: (§2) Intracellular inositol phosphate production was determined as described previously (Qian et al, 1993). IMGE-5 cells (10^5 cells/ml) were plated in 24-multiwell culture plates in DMEM supplemented with 10% FBS, 200 IU/ml penicillin and 200 μg/ml streptomycin. 24 h later, cells were incubated with DMEM supplemented with antibiotics and Myo-[2-^3H]inositol (2.5 μCi/well) and shifted to 39° C. for 16 h. Cells were then washed with pre-warmed DMEM and incubated (20-30 minutes, 37° C.) with DMEM supplemented with 20 mM LiCl. Loaded cells were then washed in 1 ml of IP buffer (135 mM NaCl, 20 mM N-(2-hydroxyethyl)piperazine-N′-(2-ethanesulfonic acid), 2 mM CaCl2, 1.2 mM MgSO4, 1 mM ethylene glycol-bis(2-aminoethylether)-N,N,N′,N′-tetraacetic acid, 10 mM LiCl, and 0.5% bovine serum albumin, pH 7.45) and incubated with or without agonist in a final volume of 0.5 ml of IP buffer. After 1-h incubation at 37° C., the reaction was stopped by removing the incubation medium and adding 1 ml of a mixture of ethanol/HCl (2000:1; v/v). One ml of each aliquot was applied to a column containing 1.6 ml of a 1:2 (v/v) Dowex AG-1-X8 anion exchange resin in distilled water. The columns were washed with 4 ml of distilled water, followed by 4 ml of 40 mM HCOONH4, and inositol phosphates were eluted with 4 ml of 1 M HCOONH4. The radioactivity of each eluate was counted after addition of Complete phase combining system solution (Amersham, UK). For the positive control, IMGE-5 cells were incubated with a combination of 30 mM NaF and 10 μM AlCl3 under the same experimental conditions.
Gamide-stimulated inositol phosphate production was measured in COS-7 cells transfected with the CCK-2 receptor. […] Bismuth ions alone had no effect on inositol phosphate production in CCK-2 receptor-transfected COS-7 cells and HT29 cells, even at the highest concentration tested.
We then investigated the role of the individual glutamates in biological activity. The effects of the mutants GamideE7A and GamideE8,9A on inositol phosphate production in COS-7 cells transiently transfected with the CCK-2 receptor were compared.

[4] = Quenching of peptide tryptophan fluorescence by ferric ions (stoichiometry, apparent Kd); format: binding; settings: pH 4.0; mean ± S.E.; read-out: Kd (μM) of ferric ion binding (amidated gastrin17 and related peptides)
Experimental: The tryptophan fluorescence of peptide solutions was measured in 3 mL quartz cuvettes thermostated at […], with a Spex Fluorolog-2 spectrofluorimeter (Spex Industries, Edison, N.J.), with the excitation and emission wavelengths set at 290 and 345 nm, respectively. The quenching of tryptophan fluorescence induced by the binding of metal ions was used to calculate the fraction of binding sites occupied, fa: fa=(yf−y)/(yf−yb) where y is the fluorescence signal at a given concentration of metal ions and yb and yf are the signals when the binding sites are fully occupied and unoccupied, respectively (Winzor et al, 1995). The stoichiometry, p, and apparent dissociation constant, Kd, were then obtained, using the program Sigmastat (Jandel Scientific, San Rafael, Calif.), from the intercept and slope of a linear regression of the data transformed as described by Winzor and Sawyer (1995) in terms of the equation Cs/fa=pCa+Kd/(1−fa) where Cs is the total concentration of metal ions, and Ca is the total concentration of glycine-extended gastrin17. For the bismuth binding studies, the data was fitted by non-linear regression with the program Sigmaplot (Jandel Scientific, San Rafael, Calif.) to the equations for models with one binding site or two binding sites with identical affinities: fa=x/(Kd1+x) or to the model with two binding sites with different affinities: fa=(Kd1·x+Kd2·x+2x^2)/2(Kd1·Kd2+Kd1·x+Kd2·x+x^2) where x is the concentration of free metal ions, Kd1 is the first site dissociation constant and Kd2 is the second site dissociation constant. For the one-site model the value of x at any given total concentration of metal ions was obtained by exact solution of the appropriate quadratic (Malby et al, 2001). For the two-site models the value of x was obtained by an iterative Newton-Raphson procedure (Linse et al, 1991). Absorption Spectroscopy
The tryptophan fluorescence of progastrin6-80, glycine-extended gastrin17 and related peptides was measured in the presence of increasing concentrations of ferric ions in 10 mM sodium acetate, pH 4.0, 100 mM NaCl, 0.005% Tween 20. […] Values from the indicated number of independent experiments were combined to obtain the mean values (±S.E.) presented above. No binding of ferric ions to Ggly1-4 or Ggly12-18 was observed.
The tryptophan fluorescence of amidated gastrin17 and related peptides was measured in the presence of increasing concentrations of ferric ions at pH 4.0 (8). Values of the stoichiometry and the apparent dissociation constant (Kd) were obtained from linear transformations of the data presented in FIG. 20A by least squares fitting. Values from the indicated number of independent experiments were combined to obtain the mean values (±S.E.) presented above.

CCK-2 receptor [5] = target: T1, CCK-2 receptor; assay: [125I]-BH-CCK8 displacement, CCK-2 receptor on transiently transfected COS-7 cells; format: binding; parameters: COS-7 cells transiently transfected with CCK-2 receptor cDNA; expressed in transfected cells; host or cells: COS-7; settings: for % Maximum Binding (COS-7): binding in the absence of competitor, fitted, mean ± S.E.; for Predicted ordinate intercept, FIG. 21: single experiment; for Ratio IC50 mutant/IC50 Gamide: transfected COS-7 cells
Experimental: as §1
The lines of best fit shown in FIG. 21 were obtained by nonlinear regression to a single site model with the program Sigmaplot.

[6] = test system: HT29 human colorectal carcinoma cells; assay: Ggly-stimulated inositol phosphate production in HT29 cells; format: cell-based; settings: HT29 cells
Experimental: as §2
Ggly-stimulated inositol phosphate production was measured in HT29 human colorectal carcinoma cells.

ZGPWLE5A ([pGlu]GPWLEEEEEA; listed as Homo sapiens) [Ggly1-11]
Kd [1]: 1.2 ± 0.04 µM
Stimulation of IMGE-5 cell proliferation (IMGE-5 cells; MTT assay, peptides shown at 1 nM (FIGS. 7A, 8A)): did increase proliferation, but to a significantly lesser extent than Ggly
Reduction of activity relative to Ggly (IMGE-5 cells; cell proliferation or wound healing assays (FIG. 7)): approximately 50%

Cc1c(O)c(=O)ccn1C [1,2-dimethyl-3-hydroxypyridin-4-one]
Inhibition of proliferation of hepatoma cell lines in vitro (hepatoma cell lines): effective inhibitors

CSCC[C@H](NC(=O)[C@H](Cc1c[nH]c2ccccc12)NC(=O)CNC(=O)[C@H](Cc1ccc(O)cc1)NC(=O)[C@H](C)NC(=O)[C@H](CCC(=O)O)NC(=O)[C@H](CCC(=O)O)NC(=O)[C@H](CCC(=O)O)NC(=O)[C@H](C)NC(=O)[C@H](CCC(=O)O)NC(=O)[C@H](CC(C)C)NC(=O)[C@H](Cc1c[nH]c2ccccc12)NC(=O)[C@@H]1CCCN1C(=O)CNC(=O)[C@@H]1CCC(=O)N1)C(=O)N[C@@H](CC(=O)O)C(=O)N[C@@H](Cc1ccccc1)C(N)=O [GamideE7A] ([pGlu]GPWLEAEEEAYGWMDF-NH2)
Ratio IC50 mutant/IC50 Gamide (CCK-2 receptor [2]): 2.4
% Maximum Binding (Jurkat) (CCK-2 receptor [2]): 96.7 ± 4.6%
Stimulation of inositol phosphate production (CCK-2 receptor [3]): No significant difference was observed in the extent of stimulation
Kd [4]: 0.17 ± 0.03 µM
% Maximum Binding (COS-7) (CCK-2 receptor [5]): 92.0 ± 1.0%
Predicted ordinate intercept, FIG. 21 (CCK-2 receptor [5]): 91.6%
Ratio IC50 mutant/IC50 Gamide (CCK-2 receptor [5]): 1.4

O=C(O)CN(CCN(CC(=O)O)CC(=O)O)CCN(CC(=O)O)CC(=O)O [DTPA, diethylene triamine pentaacetic acid]
Inhibition of proliferation of hepatoma cell lines in vitro (hepatoma cell lines): the best inhibitor of all those tested

O=C(O)CN(CCN(CC(=O)O)CC(=O)O)CC(=O)O [EDTA, ethylene diamine tetraacetic acid]
Inhibition of proliferation of hepatoma cell lines in vitro (hepatoma cell lines): ineffective

CSCC[C@H](NC(=O)[C@H](Cc1c[nH]c2ccccc12)NC(=O)CNC(=O)[C@H](Cc1ccc(O)cc1)NC(=O)[C@H](C)NC(=O)[C@H](CCC(=O)O)NC(=O)[C@H](C)NC(=O)[C@H](C)NC(=O)[C@H](CCC(=O)O)NC(=O)[C@H](CCC(=O)O)NC(=O)[C@H](CC(C)C)NC(=O)[C@H](Cc1c[nH]c2ccccc12)NC(=O)[C@@H]1CCCN1C(=O)CNC(=O)[C@@H]1CCC(=O)N1)C(=O)N[C@@H](CC(=O)O)C(=O)N[C@@H](Cc1ccccc1)C(N)=O [GamideE8, 9A] ([pGlu]GPWLEEAAEAYGWMDF-NH2)
Ratio IC50 mutant/IC50 Gamide (CCK-2 receptor [2]): 2.2
% Maximum Binding (Jurkat) (CCK-2 receptor [2]): 97.8 ± 9.0%
Stimulation of inositol phosphate production (CCK-2 receptor [3]): No significant difference was observed in the extent of stimulation
Kd [4]: 0.16 ± 0.06 µM
% Maximum Binding (COS-7) (CCK-2 receptor [5]): 98.4 ± 2.1%
Predicted ordinate intercept, FIG. 21 (CCK-2 receptor [5]): 91.0%
Ratio IC50 mutant/IC50 Gamide (CCK-2 receptor [5]): 4.1

Cc1ncc(CO)c(C=NNC(=O)c2ccncc2)c1O [pyridoxal isonicotinoyl hydrazone]
Inhibition of proliferation of hepatoma cell lines in vitro (hepatoma cell lines): effective inhibitors

[F][Al-]([F])([F])[F] [AlF4^−]
Increase in inositol phosphate production [6]: 2.6 fold
Increase in inositol phosphate production (CCK-2 receptor [3]; COS-7 cells transfected with the CCK-2 receptor, 10 μM AlF4−, 10 nM Gamide): 5 fold
